Measurements taken from patent US7008944B2, “Antidepressant azaheterocyclylmethyl derivatives of 2,3-dihydro-1,4-Dioxino[2,3-f]quinoxaline” (Wyeth, priority 2001, dated 2006).
Read-outs that look alike come from different tables or passages of the source.

Legend:
[1] = target: T1, cloned human 5-HT1A receptors (Homo sapiens, UniProt P08908); assay: 35S-GTPγS binding assay, 5-HT1A antagonist activity; assay type: biochemical; conditions: reversal of the effects of standard agonist 8-OH DPAT; for IC50: read-out: 5-HT1A Function IC50
T1 construct: expressed in transfected cells
T1 sequence (P08908 1-422): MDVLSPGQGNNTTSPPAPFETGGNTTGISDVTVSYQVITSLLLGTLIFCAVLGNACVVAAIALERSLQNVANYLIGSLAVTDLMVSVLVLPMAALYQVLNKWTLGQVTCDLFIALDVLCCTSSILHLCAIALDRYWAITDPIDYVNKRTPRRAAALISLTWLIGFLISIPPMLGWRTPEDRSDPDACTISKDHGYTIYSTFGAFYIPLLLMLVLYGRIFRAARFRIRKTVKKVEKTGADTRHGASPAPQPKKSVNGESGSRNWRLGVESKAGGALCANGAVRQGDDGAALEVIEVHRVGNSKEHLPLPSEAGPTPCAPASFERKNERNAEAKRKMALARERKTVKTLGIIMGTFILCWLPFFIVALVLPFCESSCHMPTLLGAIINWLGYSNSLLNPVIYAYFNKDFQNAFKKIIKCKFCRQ
Method: Antagonist activity at 5-HT1A receptors was established by using a ^35S-GTPγS binding assay similar to that used by Lazareno and Birdsall (Br. J. Pharmacol. 109: 1120, 1993), in which the test compound's ability to affect the binding of ^35S-GTPγS to membranes containing cloned human 5-HT1A receptors was determined. Agonists produce an increase in binding whereas antagonists produce no increase but rather reverse the effects of the standard agonist 8-OH DPAT. The test compound's maximum inhibitory effect is represented as the Imax, while its potency is defined by the IC50.

serotonin transporter = target: T2, serotonin transporter (Rattus norvegicus, UniProt P31652); assay: 3H-paroxetine displacement, serotonin transporter affinity; assay type: binding
T2 construct: displace ^3H-paroxetine from male rat frontal cortical membranes; from tissue; host or cells: male rat frontal cortex membranes
T2 sequence (P31652 whole entry): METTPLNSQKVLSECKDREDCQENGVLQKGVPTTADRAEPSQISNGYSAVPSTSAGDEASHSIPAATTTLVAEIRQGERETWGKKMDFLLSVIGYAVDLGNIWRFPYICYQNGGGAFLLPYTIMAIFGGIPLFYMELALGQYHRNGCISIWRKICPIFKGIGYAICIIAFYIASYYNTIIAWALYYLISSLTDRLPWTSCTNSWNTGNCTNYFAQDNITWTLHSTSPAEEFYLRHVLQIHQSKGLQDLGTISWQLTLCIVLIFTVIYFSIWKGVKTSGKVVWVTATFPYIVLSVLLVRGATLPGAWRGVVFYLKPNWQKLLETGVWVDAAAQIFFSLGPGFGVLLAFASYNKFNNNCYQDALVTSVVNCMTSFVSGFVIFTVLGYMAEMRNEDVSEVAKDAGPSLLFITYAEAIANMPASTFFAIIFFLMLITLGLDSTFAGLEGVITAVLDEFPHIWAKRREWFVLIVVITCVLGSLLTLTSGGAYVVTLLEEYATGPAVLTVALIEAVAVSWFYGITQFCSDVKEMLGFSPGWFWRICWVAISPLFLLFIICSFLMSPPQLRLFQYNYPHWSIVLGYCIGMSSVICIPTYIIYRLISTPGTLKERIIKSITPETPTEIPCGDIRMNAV

human 5-HT1A receptors = target: T3, human 5-HT1A receptors (Homo sapiens, UniProt P08908); assay: [3H] 8-OHDPAT displacement, 5-HT1A receptor affinity; assay type: binding
T3 construct: expressed in transfected cells; host or cells: CHO cells
T3 sequence (P08908 1-422): T1 sequence (P08908 1-422)
Description: High affinity for the serotonin 5-HT1A receptor was established by testing the claimed compound's ability to displace [^3H] 8-OHDPAT (dipropylamino-tetralin) from the 5-HT1A serotonin receptor following a modification of the procedure of Hall et al., J. Neurochem. 44, 1685 (1985) which utilizes CHO cells stably transfected with human 5-HT1A receptors.

Structure (SMILES)	melting point	5-HT1A Function Imax (maximum inhibitory effect) [1] [%]	IC50 [1] [nM]	Ki (serotonin transporter) [nM]	Ki (human 5-HT1A receptors) [nM]	Ki (serotonin transporter; displacement of 3H-paroxetine from male rat frontal cortical membranes, read-out: 5-HT Transporter Affinity KI) [nM]	Ki (human 5-HT1A receptors; displacement of [3H] 8-OHDPAT, CHO cells stably transfected with human 5-HT1A receptors, read-out: 5-HT1A Receptor Affinity KI) [nM]
Fc1ccc2[nH]cc(C3=CCN(CC4COc5ccc6nccnc6c5O4)CC3)c2c1 (stereo not drawn) [Example 1, 2-{[4-(5-Fluoro-1H-indol-3-yl)-3,6-dihydro-1(2H)-pyridinyl]methyl}-2,3-dihydro[1,4]dioxino[2,3-f]quinoxaline]	> 200 °C (dec.)	100	271	0.5	17.7	–	–
C1=C(c2c[nH]c3ccccc23)CCN(CC2COc3ccc4nccnc4c3O2)C1 (stereo not drawn) [Example 2, 2-{[4-(1H-Indol-3-yl)-3,6-dihydro-1(2H)-pyridinyl]methyl}-2,3-dihydro[1,4]dioxino[2,3-f]quinoxaline]	> 220 °C (dec.)	100	203	2.86	30	–	–
Cc1nc2ccc3c(c2nc1C)O[C@@H](CN1CC=C(c2c[nH]c4ccccc24)CC1)CO3 [Example 3]	153 to 155 °C	100	332	1.19	15.3	–	–
Cc1nc2ccc3c(c2nc1C)OC(CN1CC=C(c2c[nH]c4ccc(F)cc24)CC1)CO3 (stereo not drawn) [Example 4, 2-{[4-(5-Fluoro-1H-indol-3-yl)-3,6-dihydro-1(2H)-pyridinyl]methyl}-8,9-dimethyl-2,3-dihydro[1,4]dioxino[2,3-f]quinoxaline]	138 to 141 °C	100	389	1.57	25.5	–	–
CCc1nc2ccc3c(c2nc1CC)OC(CN1CC=C(c2c[nH]c4ccccc24)CC1)CO3 (stereo not drawn) [Example 5, 8,9-Diethyl-2-{[4-(1H-indol-3-yl)-3,6-dihydro-1(2H)-pyridinyl]methyl}-2,3-dihydro[1,4]dioxino[2,3-f]quinoxaline]	> 120 °C (dec.)	98	1860	9.5	99.2	–	–
CCc1nc2ccc3c(c2nc1CC)OC(CN1CC=C(c2c[nH]c4ccc(F)cc24)CC1)CO3 (stereo not drawn) [Example 6, 8,9-Diethyl-2-{[4-(5-fluoro-1H-indol-3-yl)-3,6-dihydro-1(2H)-pyridinyl]methyl}-2,3-dihydro[1,4]dioxino[2,3-f]quinoxaline]	> 120 °C (dec.)	100	2240	–	–	14	264
